{"source": "the SangsterLogP compilation", "data": [{"assay": "not given", "values": [{"smiles": "CC(=O)c1ssc(=S)c1-c1ccccc1", "logP": 3.31}, {"smiles": "O=Cc1cc(=S)ss1", "logP": 2.53}, {"smiles": "O=Cc1cc(=O)ss1", "logP": 1.81}, {"smiles": "CCc1c(C(C)=O)ssc1=S", "logP": 3.21}, {"smiles": "CC(=O)c1cc(=O)ss1", "logP": 1.14}, {"smiles": "CC(=O)c1ssc(=O)c1C", "logP": 1.58}, {"smiles": "CC(=O)c1ssc(=O)c1-c1ccccc1", "logP": 2.5}, {"smiles": "O=Cc1ssc(=O)c1-c1ccccc1", "logP": 2.94}, {"smiles": "COc1c(C=O)ssc1=O", "logP": 1.83}, {"smiles": "CCc1c(C(C)=O)ssc1=O", "logP": 2.12}, {"smiles": "Cc1c(C=O)ssc1=S", "logP": 2.87}, {"smiles": "CC(=O)c1cc(=S)ss1", "logP": 2.18}]}, {"assay": "method code SF-AS, from DOI: 10.1007/s11095-005-4582-3, PMID: 15948031", "values": [{"smiles": "CCc1c(C=O)ssc1=O", "logP": 2.58}, {"smiles": "O=Cc1ssc(=O)c1Cl", "logP": 2.16}, {"smiles": "Cc1c(C=O)ssc1=O", "logP": 1.62}, {"smiles": "CCc1c(C=O)ssc1=S", "logP": 3.15}, {"smiles": "O=Cc1ssc(=S)c1-c1ccccc1", "logP": 3.43}, {"smiles": "COc1c(C=O)ssc1=S", "logP": 2.56}, {"smiles": "O=Cc1ssc(=S)c1Cl", "logP": 2.95}]}]}
